{"source": "patent US9125913B2", "about": "“Bcl-2-selective apoptosis-inducing agents for the treatment of cancer and immune diseases” (AbbVie Inc., priority 2008, dated 2015)", "key": {"circulating platelets [1]": {"tested_on": "circulating platelets", "settings": "following injection in beagle canines; cited from earlier work"}, "circulating platelets [2]": {"tested_on": "circulating platelets", "settings": "following injection into C57BL/6 mice; cited from earlier work"}, "FL5.12/Bcl-2 cells": {"tested_on": "FL5.12/Bcl-2 cells", "experiment": "FL5.12/Bcl-2 cell viability assay", "format": "cell-based, murine", "settings": "for Selectivity Ratio (Platelet EC50/FL5.12/Bcl-2 EC50): ratio of canine platelet EC50 to FL5.12/Bcl-2 EC50", "in_short": "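IL-3 withdrawal 48 hrs (no WEHI-3B medium), then compound 24 hrs, various concentrations; 37° C, 5% CO2; readout CellTitre Glo. Murine prolymphocytic FL5.12 stably overexpressing Bcl-2.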"}, "[3]": {"tested_on": "isolated canine platelets", "experiment": "Platelet cell viability assay", "format": "cell-based", "settings": "Canis lupus familiaris, 5 h; isolated canine platelets (platelet-rich plasma), five hours at 37° C., Cell Titer Glo", "description": "After the incubation, platelets were equilibrated to room temperature for 20 minutes and then an equal volume of Cell Titer Glo reagent (Promega Corporation) was added. Samples were mixed for two minutes and then allowed to equilibrate for an additional 10 minutes at room temperature. The luminescence generated from the samples was quantitated using an LJL Analyst plate reader.\nThe effect of compounds on platelet survival can be directly evaluated ex vivo by examining the viability of isolated canine platelets in the presence of various concentrations of compound."}, "GST-Bcl-2 [4]": {"tested_on": "GST-Bcl-2", "experiment": "TR-FRET binding assay, Bcl-2", "settings": "TR-FRET Ki values", "in_short": "(§1)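 Ki values come from Wang's competitive-binding equation applied to TR-FRET signal (excitation 340/35 nm; emission 520/525 nm F-Bak peptide, 495/510 nm Tb antibody). Protein, probe and antibody incubated with compound 3 h at room temperature; dilution series began at 50 μM as 2× stock in 10% DMSO.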"}, "GST-Bcl-XL": {"target": "GST-Bcl-XL (Homo sapiens (Human), UniProt Q07817)", "sequence (Q07817 whole entry)": "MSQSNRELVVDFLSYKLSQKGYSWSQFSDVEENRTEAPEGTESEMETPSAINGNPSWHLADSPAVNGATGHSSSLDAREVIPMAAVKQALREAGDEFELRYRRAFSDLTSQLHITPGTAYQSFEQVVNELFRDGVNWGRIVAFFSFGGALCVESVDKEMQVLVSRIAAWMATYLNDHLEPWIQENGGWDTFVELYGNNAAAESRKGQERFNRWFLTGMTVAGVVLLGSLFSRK", "experiment": "TR-FRET binding assay, Bcl-XL", "settings": "GST-Bcl-XL 1 nM, F-Bak probe 100 nM, Tb-anti-GST 1 nM", "description": "Tb-anti-GST antibody was purchased from Invitrogen (Catalog No. PV4216).\nRepresentative compounds were serially diluted in dimethyl sulfoxide (DMSO) starting at 50 μM (2× starting concentration; 10% DMSO) and 10 μL were transferred into a 384-well plate.\nThe samples were then mixed on a shaker for 1 minute and incubated for an additional 3 hours at room temperature. For each assay, the probe/antibody and protein/probe/antibody were included on each assay plate as negative and positive controls, respectively. Fluorescence was measured on the Envision (Perkin Elmer) using a 340/35 nm excitation filter and 520/525 (F-Bak peptide) and 495/510 nm (Tb-labeled anti-Histidine antibody) emission filters.\nThe inhibition constant (Ki) is the dissociation constant of an enzyme-inhibitor complex or a protein/small molecule complex, wherein the small molecule is inhibiting binding of one protein to another protein or peptide. […] Inhibition constants were determined using Wang's equation (Wang Z-X., An Exact Mathematical Expression For Describing Competitive Binding Of Two Different Ligands To A Protein Molecule. FEBS Lett. 1995, 360:111-4)."}, "GST-Bcl-2 [5]": {"target": "GST-Bcl-2 (Homo sapiens (Human), UniProt P10415)", "sequence (P10415 whole entry, looked up)": "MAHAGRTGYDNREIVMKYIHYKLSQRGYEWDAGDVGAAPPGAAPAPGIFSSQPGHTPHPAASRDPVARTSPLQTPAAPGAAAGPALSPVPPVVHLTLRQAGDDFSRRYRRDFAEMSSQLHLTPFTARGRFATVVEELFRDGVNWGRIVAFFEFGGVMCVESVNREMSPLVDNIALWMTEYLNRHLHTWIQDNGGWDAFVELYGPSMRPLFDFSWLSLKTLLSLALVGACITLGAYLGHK", "experiment": "TR-FRET binding assay, Bcl-2", "settings": "TR-FRET; GST-Bcl-2 1 nM, F-Bak probe 100 nM, Tb-anti-GST 1 nM", "in_short": "as §1"}}, "note": "Like-named read-outs stand apart in the source and are kept apart here."}
{"smiles": "CN(C)CC[C@H](CSc1ccccc1)Nc1ccc(S(=O)(=O)NC(=O)c2ccc(N3CCN(Cc4ccccc4-c4ccc(Cl)cc4)CC3)cc2)cc1[N+](=O)[O-]", "note": "[ABT-737, 4-(4-((4′-chloro-1,1′-biphenyl-2-yl)methyl)piperazin-1-yl)-N-((4-(((1R)-3-(dimethylamino)-1-((phenylthio)methyl)propyl)amino)-3-nitrophenyl)sulfonyl)benzamide]", "values": [{"measurement": "decrease in circulating platelets", "setting": "circulating platelets [1]", "value": "rapid, concentration dependant decrease in circulating platelets"}, {"measurement": "decrease in circulating platelets", "setting": "circulating platelets [2]", "value": "rapid, concentration dependant decrease in circulating platelets"}]}
{"smiles": "CN1CCC(Nc2ccc(S(=O)(=O)NC(=O)c3ccc(N4CCN(CC5=C(c6ccc(Cl)cc6)CCC5)CC4)cc3Oc3cccc4[nH]ccc34)cc2[N+](=O)[O-])CC1", "note": "[Example 148, 4-(4-{[2-(4-chlorophenyl)cyclopent-1-en-1-yl]methyl}piperazin-1-yl)-2-(1H-indol-4-yloxy)-N-({4-[(1-methylpiperidin-4-yl)amino]-3-nitrophenyl}sulfonyl)benzamide]", "values": [{"measurement": "EC50", "setting": "FL5.12/Bcl-2 cells; Mus musculus, FL5.12/Bcl-2 cells, IL-3 withdrawal, 24 hrs treatment, CellTitre Glo", "value": 0.07, "unit": "µM"}, {"measurement": "Selectivity Ratio (Platelet EC50/FL5.12/Bcl-2 EC50)", "setting": "FL5.12/Bcl-2 cells", "value": 278}, {"measurement": "EC50", "setting": "[3]", "value": 120, "unit": "µM"}, {"measurement": "Binding selectivity ratio (Bcl-XL Ki/Bcl-2 Ki)", "setting": "GST-Bcl-2 [4]", "value": ">228.4"}]}
{"smiles": "CN1CCC(Nc2ccc(S(=O)(=O)NC(=O)c3ccc(N4CCN(CC5=C(c6ccc(Cl)cc6)CC(C)(C)CC5)CC4)cc3Oc3ccc4[nH]ccc4c3)cc2S(=O)(=O)C(F)(F)F)CC1", "note": "[Example 76, 4-(4-{[2-(4-chlorophenyl)-4,4-dimethylcyclohex-1-en-1-yl]methyl}piperazin-1-yl)-2-(1H-indol-5-yloxy)-N-({4-[(1-methylpiperidin-4-yl)amino]-3-[(trifluoromethyl)sulfonyl]phenyl}sulfonyl)benzamide]", "values": [{"measurement": "Ki", "setting": "GST-Bcl-XL", "value": 10, "unit": "µM"}, {"measurement": "Selectivity Ratio (Platelet EC50/FL5.12/Bcl-2 EC50)", "setting": "FL5.12/Bcl-2 cells", "value": 221}, {"measurement": "Ki", "setting": "GST-Bcl-2 [5]", "value": 0.05, "unit": "nM"}, {"measurement": "Binding selectivity ratio (Bcl-XL Ki/Bcl-2 Ki)", "setting": "GST-Bcl-2 [4]", "value": 64.5}]}
